# Results: US4918056A, “2-substituted arabinopyranosyl nucleosides and nucleotides” (priority 1986, dated 1990)
# How the values were obtained:
# L1210/ara-C leukemia = assay: Therapeutic activity in DBA/2N mice with ara-C resistant L1210 leukemia; details: for Median survival: control 7; for Mean ± SD survival: control 7.1 + 0.1
# Method: (§1) In conducting the evaluations, the activity was tested against intraperitoneal (i.p.) implanted leukemia in mice.
# (§2) DBA/2N female mice (20 g) were implanted i.p. with 1×10^6 L1210 leukemia cells on day 0. Mice were weighed and inspected for tumor growth and survival daily. […] Dosages varied from 1 to 800 mg/kg/day (mkd).
# (§3) Survival time was measured in days after tumor implantation. % ILS (increase in life span) was based on mean survival.
# (§4) Testing was followed as described in the NCI protocol and evaluation by comparison of median survival time (ST) of the treated animals to that of the control animals by the percentage increase in % ILS.
# (§5) Drug resistant L1210 leukemia cell sublines were obtained from the National Cancer Institute. […] Eight mice were used as controls and five mice for each drug dosage group. Drugs were administered i.p. once per day on days 1, 2, 3, 4 and 5.
# L1210/5-FU leukemia = assay: Therapeutic activity in DBA/2N mice with 5-FU resistant L1210 leukemia; format: in vivo, mouse (DBA/2N female); details: for Median survival: control 9; for Mean ± SD survival: control 9.25 ± 0.2
# Method: as §1, §2, §3, §4, §5
# Lewis lung carcinoma = assay: Therapeutic activity in C57/B16 mice with s.c. Lewis lung carcinoma; format: in vivo, mouse (C57/B16 female); details: for % ILS (increase in life span): based on median survival; for Median survival: control 22
# Method: The therapeutic activity of 85024 was evaluated in C57/B16 female mice implanted s.c. with either Lewis lung carcinoma or M5076 sarcoma (Table 5).
# C57/B16 female mice were implanted s.c. using a trochar on day 0 with a 50 mg piece of either Lewis lung carcinoma of M5076 sarcoma. Drugs were administered i.p. once daily on days 3, 4, 5, 6 and 7. Tumor size (two perpendicular diameters) was measured with calipers and volume was estimated algebraically. Survival was monitored daily for 60 days. % ILS (increase in life span) is based on median survival.
# L1210/0 leukemia = assay: Therapeutic activity against i.p. inoculated L1210/0 leukemic mice; format: in vivo, mouse (DBA/2N female); details: for Mean ± SD survival: control 6.7 ± 0.1; for Median survival: control 7
# Method: The control group consisted of 20 mice injected with a 0.2 ml suspension of 0.5% Tween 80 in saline.
# L1210 leukemia cells [1] = assay: L1210 leukemia cell growth inhibition (48 hr, Coulter counter); format: cell-based, mouse; details: Mus musculus, L1210, RPMI 1640, 10% fetal calf serum
# Method: Compounds 85024, 85023, 85058, 85027 and 85060 having a glycosidic linkage between the 2'carbon of the arabinose (in pyranose configuration) and base were evaluated for their growth inhibitory action on L1210 leukemia cells maintained in RPMI 1640 medium supplemented with 10% fetal calf serum and 16 mM HEPES, pH 7.2. Cellular growth inhibition was determined by incubating […] for 48 hr in 2 ml of media containing varying concentrations of drugs. Cell growth inhibition (50% growth inhibitory concentration, IC50) was determined after counting cells with a Coulter counter (Bernacki et al., Cancer Res. 45, 695, 1985). Drug concentrations which inhibited cell growth by 50% (IC50) are listed for each compound in Table 1.
# L1210 leukemia cells [2] = assay: Reversal of L1210 growth inhibition by salvageable nucleosides; format: cell-based, mouse
# Method: Reversal studies were conducted as follows: […], 85027 or 5-FdUr were added at various concentrations near their IC50 to cultures of L1210 leukemia cells, maintained in PRMI 1640 medium supplemented with 10% fetal calf serum and 16mM HEPES, pH 7.2 as described in Example 9. Nucleosides including thymidine (1×10^-5 M), uridine (1×10^-4 M), deoxyuridine ([…]), adenosine (1×10^-4 M), or guanosine (1×10^-5 M) were also added to identical drug (85024, 85027 or 5-FdUr) containing L1210 leukemia cultures. Cellular growth inhibition or its prevention by the addition of salvageable nucleosides was determined 48 hours later by counting cells using an electronic Coulter Counter.
structure (smiles),measurement,setting,value
"COC1OC[C@@H](OC(C)=O)[C@@H](OC(C)=O)[C@]1(F)n1ccc(=O)[nH]c1=O (stereo partly drawn) [compound 85024, Methyl 3,4-di-0-acetyl-2-deoxy-2(R)-[1H,3H-2,4-dioxo-1-pyrimidinyl]-2-fluoro-α-D-arabinopyranoside [5a] and methyl 3,4-di-0-acetyl-2-deoxy-2(R)-[1H,3H-2,4-dioxo-1-pyrimidinyl]-2-fluoro-β-D-arabinopyranoside [6a]]",Mean Animal Weight,L1210/ara-C leukemia; 100 mkd × 5 i.p.,20.7 g
same,Survival Range,L1210/ara-C leukemia; 100 mkd × 5 i.p.,8 to 9 days
same,% ILS (increase in life span),"L1210/ara-C leukemia; 100 mkd × 5 i.p., NS",28%
same,Median survival,L1210/ara-C leukemia; 100 mkd × 5 i.p.,9 days
same,Mean ± SD survival,L1210/ara-C leukemia; 100 mkd × 5 i.p.,8.6 ± 0.2 days
same,Mean Animal Weight,L1210/ara-C leukemia; 200 mkd × 5 i.p.,21.0 g
same,Survival Range,L1210/ara-C leukemia; 200 mkd × 5 i.p.,8 to 9 days
same,% ILS (increase in life span),"L1210/ara-C leukemia; 200 mkd × 5 i.p., P <.01",28%
same,Median survival,L1210/ara-C leukemia; 200 mkd × 5 i.p.,9 days
same,Mean ± SD survival,L1210/ara-C leukemia; 200 mkd × 5 i.p.,8.8 ± 0.2 days
same,Mean Animal Weight,L1210/ara-C leukemia; 500 mkd × 5 i.p.,18.6 g
same,Survival Range,L1210/ara-C leukemia; 500 mkd × 5 i.p.,10 to 11 days
same,% ILS (increase in life span),"L1210/ara-C leukemia; 500 mkd × 5 i.p., P <.01",57%
same,Median survival,L1210/ara-C leukemia; 500 mkd × 5 i.p.,11 days
same,Mean ± SD survival,L1210/ara-C leukemia; 500 mkd × 5 i.p.,10.8 ± 0.2 days
same,cross resistance to ara-C and 5-FU,L1210/ara-C leukemia; summary of L1210/ara-C and L1210/5-FU tests,not cross resistant
same,Mean Animal Weight,L1210/5-FU leukemia; 100 mkd × 5 i.p.,20.6 g
same,Survival Range,L1210/5-FU leukemia; 100 mkd × 5 i.p.,9 to 12 days
same,% ILS (increase in life span),"L1210/5-FU leukemia; 100 mkd × 5 i.p., P <.05",22%
same,Median survival,L1210/5-FU leukemia; 100 mkd × 5 i.p.,11 days
same,Mean ± SD survival,L1210/5-FU leukemia; 100 mkd × 5 i.p.,10.6 ± .5 days
same,Mean Animal Weight,L1210/5-FU leukemia; 200 mkd × 5 i.p.,20.2 g
same,Survival Range,L1210/5-FU leukemia; 200 mkd × 5 i.p.,9 to 11 days
same,% ILS (increase in life span),"L1210/5-FU leukemia; 200 mkd × 5 i.p., P 0.1",11%
same,Median survival,L1210/5-FU leukemia; 200 mkd × 5 i.p.,10 days
same,Mean ± SD survival,L1210/5-FU leukemia; 200 mkd × 5 i.p.,10 ± 0.4 days
same,% ILS (increase in life span),L1210/5-FU leukemia; 500 mkd × 5 i.p.,-34%
same,Mean Animal Weight,L1210/5-FU leukemia; 500 mkd × 5 i.p.,15.9 g
same,Survival Range,L1210/5-FU leukemia; 500 mkd × 5 i.p.,6 to 7 days
same,Median survival,L1210/5-FU leukemia; 500 mkd × 5 i.p.,6 days
same,Mean ± SD survival,L1210/5-FU leukemia; 500 mkd × 5 i.p.,6.4 ± 0.2 days
same,effect on tumor size,"Lewis lung carcinoma; 400 mg/kg/day i.p., days 3-7",statistically significant decrease in tumor size
same,increase of median day to reach half maximal tumor size,"Lewis lung carcinoma; 400 mg/kg/day i.p., days 3-7, normalized for animal weight, from day 19 to 23",4 days
same,Survival Range,"Lewis lung carcinoma; 50 mkd × 5 i.p., days 3-7",24 to 31 days
same,% ILS (increase in life span),"Lewis lung carcinoma; 50 mkd × 5 i.p., days 3-7",22%
same,Half Maximal Tumor Volume,"Lewis lung carcinoma; 50 mkd × 5 i.p., days 3-7, control 19, p < 0.05",20.5 days
same,Median survival,"Lewis lung carcinoma; 50 mkd × 5 i.p., days 3-7",27 days
same,Survival Range,"Lewis lung carcinoma; 200 mkd × 5 i.p., days 3-7",17 to 32 days
same,% ILS (increase in life span),"Lewis lung carcinoma; 200 mkd × 5 i.p., days 3-7",40%
same,Half Maximal Tumor Volume,"Lewis lung carcinoma; 200 mkd × 5 i.p., days 3-7, control 19",21 days
same,Median survival,"Lewis lung carcinoma; 200 mkd × 5 i.p., days 3-7",31 days
same,Survival Range,"Lewis lung carcinoma; 400 mkd × 5 i.p., days 3-7",21 to 31 days
same,% ILS (increase in life span),"Lewis lung carcinoma; 400 mkd × 5 i.p., days 3-7, p < 0.05",40%
same,Half Maximal Tumor Volume (median day to reach half maximal tumor size),"Lewis lung carcinoma; 400 mkd × 5 i.p., days 3-7, control 19, p < 0.05",23 days
same,Median survival,"Lewis lung carcinoma; 400 mkd × 5 i.p., days 3-7",31 days
same,effect on lifespan and tumor size,Lewis lung carcinoma; s.c. solid tumors (Lewis lung carcinoma or M5076 sarcoma),increased their lifespan and significantly decreased tumor size
same,Mean Animal Weight (on the day of death),L1210/0 leukemia; 50 mkd × 5 i.p.,23.4 g
same,Survival Range,L1210/0 leukemia; 50 mkd × 5 i.p.,7 to 8 days
same,% ILS (increase in life span),"L1210/0 leukemia; 50 mkd × 5 i.p., N.S.",7%
same,Mean ± SD survival,L1210/0 leukemia; 50 mkd × 5 i.p.,7.2 ± 0.2 days
same,Median survival,L1210/0 leukemia; 50 mkd × 5 i.p.,7 days
same,Mean Animal Weight (on the day of death),L1210/0 leukemia; 100 mkd × 5 i.p.,24.0 g
same,Survival Range,L1210/0 leukemia; 100 mkd × 5 i.p.,8-8 days
same,% ILS (increase in life span),"L1210/0 leukemia; 100 mkd × 5 i.p., N.S.",19%
same,Mean ± SD survival,L1210/0 leukemia; 100 mkd × 5 i.p.,8.0 ± 0 days
same,Median survival,L1210/0 leukemia; 100 mkd × 5 i.p.,8 days
same,Mean Animal Weight (on the day of death),L1210/0 leukemia; 200 mkd × 5 i.p.,22.0 g
same,Survival Range,L1210/0 leukemia; 200 mkd × 5 i.p.,8 to 10 days
same,Mean ± SD survival,L1210/0 leukemia; 200 mkd × 5 i.p.,8.8 ± 0.2 days
same,Median survival,L1210/0 leukemia; 200 mkd × 5 i.p.,9 days
same,% ILS (increase in life span),"L1210/0 leukemia; 200 mkd × 5 i.p., p < 0.01",31%
same,Mean Animal Weight (on the day of death),L1210/0 leukemia; 400 mkd × 5 i.p.,18.8 g
same,Survival Range,L1210/0 leukemia; 400 mkd × 5 i.p.,9 to 11 days
same,Mean ± SD survival,L1210/0 leukemia; 400 mkd × 5 i.p.,9.9 ± 0.2 days
same,Median survival,L1210/0 leukemia; 400 mkd × 5 i.p.,10 days
same,% ILS (increase in life span),"L1210/0 leukemia; 400 mkd × 5 i.p., p < 0.01",48%
same,Mean Animal Weight (on the day of death),L1210/0 leukemia; 500 mkd × 5 i.p.,17.3 g
same,Survival Range,L1210/0 leukemia; 500 mkd × 5 i.p.,10 to 11 days
same,Mean ± SD survival,L1210/0 leukemia; 500 mkd × 5 i.p.,10.4 ± 0.2 days
same,Median survival,L1210/0 leukemia; 500 mkd × 5 i.p.,10 days
same,% ILS (increase in life span),"L1210/0 leukemia; 500 mkd × 5 i.p., p < 0.01",55%
same,Mean Animal Weight (on the day of death),L1210/0 leukemia; 600 mkd × 5 i.p.,16.8 g
same,Survival Range,L1210/0 leukemia; 600 mkd × 5 i.p.,7 to 11 days
same,Mean ± SD survival,L1210/0 leukemia; 600 mkd × 5 i.p.,9.4 ± 0.8 days
same,Median survival,L1210/0 leukemia; 600 mkd × 5 i.p.,10 days
same,% ILS (increase in life span),"L1210/0 leukemia; 600 mkd × 5 i.p., p < 0.5",40%
same,Mean Animal Weight (on the day of death),L1210/0 leukemia; 700 mkd × 5 i.p.,16.6 g
same,Survival Range,L1210/0 leukemia; 700 mkd × 5 i.p.,4 to 7 days
same,% ILS (increase in life span),"L1210/0 leukemia; 700 mkd × 5 i.p., N.S.",-10%
same,Mean ± SD survival,L1210/0 leukemia; 700 mkd × 5 i.p.,6.0 ± 0.6 days
same,Median survival,L1210/0 leukemia; 700 mkd × 5 i.p.,7 days
same,% ILS (increase in life span),L1210/0 leukemia; 800 mkd × 5 i.p.,-70%
same,Mean Animal Weight (on the day of death),L1210/0 leukemia; 800 mkd × 5 i.p.,19.5 g
same,Survival Range,L1210/0 leukemia; 800 mkd × 5 i.p.,2-2 days
same,Mean ± SD survival,L1210/0 leukemia; 800 mkd × 5 i.p.,2.0 ± 0 days
same,Median survival,L1210/0 leukemia; 800 mkd × 5 i.p.,2 days
same,dose of maximal therapeutic efficacy,"L1210/0 leukemia; 5 day i.p. schedule, 1 dose per day days 1-5",500 mg/kg/day
same,mortality due to drug toxicity,"L1210/0 leukemia; i.p. days 1-5, 800 mkd",eventual mortality due to drug toxicity
same,host toxicity,"L1210/0 leukemia; i.p. days 1-5, above 500 mkd, evidenced by increased weight loss",increased host toxicity
same,IC50,L1210 leukemia cells [1],55 µM
same,reversal of cellular cytotoxicity by exogenous nucleosides,"L1210 leukemia cells [2]; exogenous thymidine, uridine or deoxyuridine, tissue culture","not reversed by exogenous thymidine, uridine or deoxyuridine"
same,effect of added nucleoside on the IC50,"L1210 leukemia cells [2]; thymidine (1×10^-5 M), uridine (1×10^-4 M) or deoxyuridine (1×10^-5 M)",< 10%
